Read-outs that look alike come from different tables or passages of the source.
Test system: Pigs
Settings: riluzole ip 8 mg/kg; for average number of episodes of sustained arrhythmias: VT or VF lasting more than 15 seconds
Procedure: Pigs of either sex and weighing between 20 and 35 kg were each anaesthetised with thiopentone sodium (10-15 mg/kg iv) and maintained under general anaesthesia with isoflurane (0.5-2% in oxygen). Artificial ventilation was maintained at a volume of 15 ml/kg and a rate of 12 breaths per minute. […] Subsequent to a mid-stemotomy and division of the pericardium, the left anterior coronary artery (LAD) was occluded mid-way along its length by permanent ligation.

[1] = first three hours post commencement of hypoxia
[2] = phase 2 (60-180 minutes post LAD occlusion)

For `Nc1nc2ccc(OC(F)(F)F)cc2s1` [riluzole, 2-amino-6-tritluoromethoxybenzothiazole], the “animals which developed any non-sustained arrhythmias” value [1] was 50%, the “animals which developed any sustained arrhythmias” value [1] was 50% and the “number of spontaneous PVCs (single), riluzole vs control group” value (phase 1a (first 15 minutes of hypoxia following LAD occlusion)) was “no significant difference”. The “average number of episodes of sustained arrhythmias” value (phase 1a) was 0.17 episodes per animal, the “fall in number of episodes of non-sustained arrhythmias vs control group” value (phase 1a) was 43% and the “fall in number of episodes of sustained arrhythmias vs control group” value (phase 1a) was 58%. For the same compound, the “number of geminy beats (bigeminy, trigeminy and quadrigeminy) occurring spontaneously, riluzole vs control group” value (phase 1a) was “no significant”, the “number of multiple PVCs occurring spontaneously, riluzole vs control group” value (phase 1a) was “no significant difference” and the “number of spontaneous PVCs (single), riluzole vs control group” value (phase 1b (15-60 minutes post LAD occlusion)) was “no significant difference”. For the same compound, the “average number of episodes of sustained arrhythmias” value (phase 1b) was 0.33 episodes per animal, the “fall in number of episodes of non-sustained arrhythmias vs control group” value (phase 1b) was 35% and the “fall in number of episodes of sustained arrhythmias vs control group” value (phase 1b) was 86%. For the same compound, the “number of geminy beats (bigeminy, trigeminy and quadrigeminy) occurring spontaneously, riluzole vs control group” value (phase 1b) was “no significant”, the “number of multiple PVCs occurring spontaneously, riluzole vs control group” value (phase 1b) was “no significant difference” and the “average number of PVCs (single)” value [2] was 17. The “drop in average number of PVCs (single) vs control group” value [2] was 91%, the “average number of episodes of sustained arrhythmias” value (phase 2) was 0.33 episodes per animal and the “average number of geminy beats” value (phase 2) was 0. For the same compound, the “average number of multiple PVCs” value (phase 2) was 7, the “drop in average number of geminy beats vs control group” value (phase 2) was 100% and the “drop in average number of multiple PVCs vs control group” value (phase 2) was 93%. For the same compound, the “fall in number of episodes of non-sustained arrhythmias vs control group” value (phase 2) was 92% and the “fall in number of episodes of sustained arrhythmias vs control group” value (phase 2) was 90%.
